Measurements taken from US10870647B2, “Imidazopyridine derivative, method for preparing same, and pharmaceutical composition containing same as active ingredient for preventing or treating cancer” (DAEGU-GYEONGBUK MEDICAL INNOVATION FOUNDATION, priority 2016, dated 2020).

Key:
Experiment in all cases: Kinase selectivity, scanMAX Kinase assay panel (DiscoverX), % control at 1 uM
Type in all cases: binding
[1] = biological target: T1, scanMAX Kinase assay panel (Homo sapiens, UniProt Q12851); settings: MAP4K2; 1 uM; read-out: Percent Control (%)
T1 construct: purchased DiscoverX
T1 sequence (Q12851 1-820): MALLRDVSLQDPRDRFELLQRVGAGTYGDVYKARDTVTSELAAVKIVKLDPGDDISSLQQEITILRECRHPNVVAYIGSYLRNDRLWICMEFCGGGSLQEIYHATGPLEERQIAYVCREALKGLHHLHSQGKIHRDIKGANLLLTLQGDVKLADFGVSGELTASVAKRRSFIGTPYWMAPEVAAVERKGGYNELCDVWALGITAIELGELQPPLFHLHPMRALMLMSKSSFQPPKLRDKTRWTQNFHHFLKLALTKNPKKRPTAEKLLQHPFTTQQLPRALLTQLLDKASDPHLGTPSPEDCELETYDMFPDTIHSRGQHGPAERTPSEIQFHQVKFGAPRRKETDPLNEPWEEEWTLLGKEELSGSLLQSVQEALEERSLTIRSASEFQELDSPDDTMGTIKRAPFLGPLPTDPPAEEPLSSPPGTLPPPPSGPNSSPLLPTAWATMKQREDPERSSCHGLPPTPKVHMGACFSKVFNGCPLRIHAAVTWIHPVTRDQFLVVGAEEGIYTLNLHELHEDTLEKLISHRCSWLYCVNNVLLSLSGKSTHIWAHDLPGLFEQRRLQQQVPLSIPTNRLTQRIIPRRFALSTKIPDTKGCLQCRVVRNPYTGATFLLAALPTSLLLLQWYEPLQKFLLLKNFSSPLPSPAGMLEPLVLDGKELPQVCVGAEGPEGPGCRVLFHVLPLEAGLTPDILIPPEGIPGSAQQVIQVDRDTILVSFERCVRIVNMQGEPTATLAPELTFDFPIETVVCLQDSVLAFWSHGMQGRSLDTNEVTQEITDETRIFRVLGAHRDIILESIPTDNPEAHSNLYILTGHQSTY
Outline: (§1)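 Binding across the scanMAX kinase panel was tested at 1 uM compound. % control = (compound − positive control)/(negative control − positive control) × 100; below 35 counted as active.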

[2] = biological target: T2, scanMAX Kinase assay panel (Homo sapiens, UniProt Q09013); settings: DMPK; 1 uM; read-out: Percent Control (%)
T2 construct: purchased DiscoverX
T2 sequence (Q09013 1-629): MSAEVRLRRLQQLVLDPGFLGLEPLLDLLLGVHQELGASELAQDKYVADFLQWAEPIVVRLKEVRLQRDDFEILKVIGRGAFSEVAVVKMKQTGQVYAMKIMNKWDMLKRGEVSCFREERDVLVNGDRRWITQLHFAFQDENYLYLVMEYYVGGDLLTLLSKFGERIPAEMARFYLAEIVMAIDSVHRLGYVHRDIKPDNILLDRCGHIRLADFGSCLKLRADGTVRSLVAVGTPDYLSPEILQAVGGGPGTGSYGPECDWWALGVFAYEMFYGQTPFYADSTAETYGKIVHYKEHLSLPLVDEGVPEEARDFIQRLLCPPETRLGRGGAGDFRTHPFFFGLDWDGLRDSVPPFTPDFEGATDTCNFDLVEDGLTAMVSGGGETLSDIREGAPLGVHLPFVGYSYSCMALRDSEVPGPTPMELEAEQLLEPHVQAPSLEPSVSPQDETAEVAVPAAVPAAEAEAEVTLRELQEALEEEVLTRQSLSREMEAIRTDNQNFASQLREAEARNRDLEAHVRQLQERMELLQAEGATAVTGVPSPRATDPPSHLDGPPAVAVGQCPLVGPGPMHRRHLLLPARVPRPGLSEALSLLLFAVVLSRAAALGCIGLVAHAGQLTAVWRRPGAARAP
Outline: as §1

[3] = biological target: T3, scanMAX Kinase assay panel (Homo sapiens, UniProt Q00535); settings: CDK5; 1 uM; read-out: Percent Control (%)
T3 construct: purchased DiscoverX
Outline: as §1

[4] = biological target: T4, scanMAX Kinase assay panel (Homo sapiens, UniProt Q92772); settings: CDKL2; 1 uM; read-out: Percent Control (%)
T4 construct: purchased DiscoverX
T4 sequence (Q92772 1-493): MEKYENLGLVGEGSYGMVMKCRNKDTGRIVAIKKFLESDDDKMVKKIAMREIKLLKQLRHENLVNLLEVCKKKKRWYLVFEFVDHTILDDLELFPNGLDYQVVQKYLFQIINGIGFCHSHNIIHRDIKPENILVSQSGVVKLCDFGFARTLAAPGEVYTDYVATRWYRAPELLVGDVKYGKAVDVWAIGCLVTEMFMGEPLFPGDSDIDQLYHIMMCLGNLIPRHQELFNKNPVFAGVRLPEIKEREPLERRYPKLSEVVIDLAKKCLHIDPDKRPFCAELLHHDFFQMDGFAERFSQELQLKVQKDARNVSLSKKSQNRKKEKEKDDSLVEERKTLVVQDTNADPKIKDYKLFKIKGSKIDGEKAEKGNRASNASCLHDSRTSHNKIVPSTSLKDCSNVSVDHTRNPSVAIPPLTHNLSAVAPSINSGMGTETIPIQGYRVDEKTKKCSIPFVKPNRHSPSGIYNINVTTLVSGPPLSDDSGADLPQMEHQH
Outline: as §1

[5] = biological target: T5, scanMAX Kinase assay panel (Homo sapiens, UniProt P31749); settings: AKT1; 1 uM; read-out: Percent Control (%)
T5 construct: purchased DiscoverX
Outline: as §1

[6] = biological target: T6, scanMAX Kinase assay panel (Homo sapiens, UniProt Q9UQB9); settings: AURKC; 1 uM; read-out: Percent Control (%)
T6 construct: purchased DiscoverX
T6 sequence (Q9UQB9 1-309): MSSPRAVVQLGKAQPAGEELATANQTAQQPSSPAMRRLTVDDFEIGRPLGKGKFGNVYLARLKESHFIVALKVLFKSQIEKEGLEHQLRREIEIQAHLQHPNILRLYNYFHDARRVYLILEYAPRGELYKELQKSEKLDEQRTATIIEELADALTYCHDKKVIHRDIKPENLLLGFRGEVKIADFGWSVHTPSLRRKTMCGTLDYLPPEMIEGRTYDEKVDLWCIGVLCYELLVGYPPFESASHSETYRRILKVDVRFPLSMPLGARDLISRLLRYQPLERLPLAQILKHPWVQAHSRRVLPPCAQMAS
Outline: as §1

[7] = biological target: T7, scanMAX Kinase assay panel (Plasmodium falciparum, UniProt P62344); settings: PFCDPK1 (P. falciparum); 1 uM; read-out: Percent Control (%)
T7 construct: purchased DiscoverX
Outline: as §1

T3 sequence (Q00535 whole entry): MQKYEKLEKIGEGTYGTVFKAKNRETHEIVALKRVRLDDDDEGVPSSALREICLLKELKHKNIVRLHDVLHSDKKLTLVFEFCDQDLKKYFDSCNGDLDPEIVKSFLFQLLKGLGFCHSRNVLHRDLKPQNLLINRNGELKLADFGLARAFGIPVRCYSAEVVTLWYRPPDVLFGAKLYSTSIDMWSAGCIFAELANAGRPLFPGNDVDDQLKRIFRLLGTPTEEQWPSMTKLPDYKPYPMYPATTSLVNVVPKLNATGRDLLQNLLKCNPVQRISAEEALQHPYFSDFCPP
T5 sequence (P31749 whole entry): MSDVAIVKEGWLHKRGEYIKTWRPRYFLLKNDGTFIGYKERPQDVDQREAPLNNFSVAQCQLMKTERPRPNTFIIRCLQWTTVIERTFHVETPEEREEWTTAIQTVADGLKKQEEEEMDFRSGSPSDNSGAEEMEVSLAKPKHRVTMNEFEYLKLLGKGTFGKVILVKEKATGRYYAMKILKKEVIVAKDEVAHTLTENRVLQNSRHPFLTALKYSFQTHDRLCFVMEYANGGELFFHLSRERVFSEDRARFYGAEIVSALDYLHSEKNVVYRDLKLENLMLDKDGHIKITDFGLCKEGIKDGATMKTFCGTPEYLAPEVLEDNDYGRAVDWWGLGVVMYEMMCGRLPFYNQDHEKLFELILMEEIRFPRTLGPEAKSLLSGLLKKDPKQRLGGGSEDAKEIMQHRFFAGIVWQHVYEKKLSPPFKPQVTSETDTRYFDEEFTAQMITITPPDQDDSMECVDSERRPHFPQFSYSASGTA
T7 sequence (P62344 whole entry): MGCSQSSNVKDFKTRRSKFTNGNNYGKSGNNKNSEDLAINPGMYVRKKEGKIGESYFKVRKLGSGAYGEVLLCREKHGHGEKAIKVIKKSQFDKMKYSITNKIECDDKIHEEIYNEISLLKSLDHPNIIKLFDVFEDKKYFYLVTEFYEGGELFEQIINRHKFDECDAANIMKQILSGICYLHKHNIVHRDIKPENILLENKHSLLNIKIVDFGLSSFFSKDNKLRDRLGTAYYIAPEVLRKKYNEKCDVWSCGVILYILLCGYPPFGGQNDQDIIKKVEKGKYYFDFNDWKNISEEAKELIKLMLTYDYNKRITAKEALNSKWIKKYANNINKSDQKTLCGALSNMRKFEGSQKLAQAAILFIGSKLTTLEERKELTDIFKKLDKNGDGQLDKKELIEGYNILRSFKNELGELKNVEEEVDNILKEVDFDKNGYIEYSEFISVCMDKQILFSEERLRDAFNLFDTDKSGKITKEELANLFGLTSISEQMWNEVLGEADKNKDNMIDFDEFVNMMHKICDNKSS

## Cc1ccc(C(=O)Nc2ccc(CN3CCN(C)CC3)c(C(F)(F)F)c2)cc1C#Cc1cnc2c(Nc3cnn(C)c3)cccn12 [Example 1, 4-methyl-3-((8-((1-methyl-1H-pyrazol-4-yl)amino)imidazo[1,2-a]pyridin-3-yl)ethynyl)-N-(4-((4-methylpiperazin-1-yl)methyl)-3-(trifluoromethyl)phenyl)benzamide]
[1]
  remaining binding at 1 µM: 1%
[2]
  remaining binding at 1 µM: 100%
[3]
  remaining binding at 1 µM: 30%
[4]
  remaining binding at 1 µM: 0%
[5]
  remaining binding at 1 µM: 80%
[6]
  remaining binding at 1 µM: 1%
[7]
  remaining binding at 1 µM: 1%

## Cc1cn(-c2cc(NC(=O)c3ccc(C)c(C#Cc4cnc5c(Nc6cnn(C)c6)cccn45)c3)cc(C(F)(F)F)c2)cn1 [Example 12, 4-methyl-N-(3-(4-methyl-1H-imidazol-1-yl)-5-(trifluoromethyl)phenyl)-3-((8-((1-methyl-1H-pyrazol-4-yl)amino)imidazo[1,2-a]pyridin-3-yl)ethynyl)benzamide]
[1]
  remaining binding at 1 µM: 98%
[2]
  remaining binding at 1 µM: 96%
[3]
  remaining binding at 1 µM: 89%
[4]
  remaining binding at 1 µM: 55%
[5]
  remaining binding at 1 µM: 88%
[6]
  remaining binding at 1 µM: 48%
[7]
  remaining binding at 1 µM: 55%

## Cc1ccc(NC(=O)C2(C(=O)Nc3ccc(F)cc3)CC2)cc1C#Cc1cnc2c(Nc3cnn(C(C)C)c3)cccn12 [Example 78]
[1]
  remaining binding at 1 µM: 100%
[2]
  remaining binding at 1 µM: 92%
[3]
  remaining binding at 1 µM: 100%
[4]
  remaining binding at 1 µM: 94%
[5]
  remaining binding at 1 µM: 98%
[6]
  remaining binding at 1 µM: 88%
[7]
  remaining binding at 1 µM: 97%
